Experiments:
Spodoptera exigua [1] = assay: Spodoptera exigua micro-bioassay (potentiation of Bt Cry protein by Ia); assay type: in vivo
Experimental: Activity is monitored by a Spodoptera exigua micro-bioassay, and purity is determined by capillary electrophoresis. […] The trays containing the various samples are air dried. Two to four 2nd or early 3rd instar Spodoptera exigua are added to the wells containing the dried sample. The wells are sealed with mylar poked with holes and are incubated for 2-3 days at 30° C. Degree of stunting and percent mortality are then recorded. Typically, 5 replicate wells are run for each sample.
*Mortality = # insects dead/# total insects after 2 days
.dagger.Stunt score is defined by the average size of the live insect
larvae at the end of the bioassay: 4.0 = untreated control, 3.0 = 75% size
of untreated control, 2.0 = 50% size of untreated control, 1.0 = 25% size
of untreated control, 0.0 = no growth or size unchanged from start of […]

[2] = Stability of Ia determined by bioassay; assay type: physicochemical
Experimental: Activity is monitored by a Spodoptera exigua micro-bioassay, and purity is determined by capillary electrophoresis. Sample consisting of 50 μl of Ia and 50 μl of CryIA(c) protein (15 μg/ml) purified from BIOBIT™ FC (100 μl), is applied to individual wells of a jelly tray containing 500 μl of solidified artificial insect diet. The trays containing the various samples are air dried. Two to four 2nd or early 3rd instar Spodoptera exigua are added to the wells containing the dried sample. The wells are sealed with mylar poked with holes and are incubated for 2-3 days at 30° C. Degree of stunting and percent mortality are then recorded. Typically, 5 replicate wells are run for each sample.
Further, it is stable when subjected to direct sunlight for at least 10 hours. Ia is stable at pH 2 for 3 days, but unstable at pH 12.

[3] = Solubility of the active compound; assay type: physicochemical
Spodoptera exigua [4] = assay: Diet incorporation bioassay, third instar Spodoptera exigua; assay type: in vivo
Experimental: (§1) B.t.k. activity is determined by an artificial diet incorporation bioassay using third instar Spodoptera exigua larvae, second instar Helicoverpa zea larvae, third instar Spodoptera frugiperda larvae, second instar Heliothis virescens larvae, third instar Trichoplusia ni larvae, third instar Pseudoplusia includens larvae, third instar Plutella xylostella larvae, third instar Spodoptera littoralis, and third instar Mamestra brassicae larvae.
(§2) To determine the level of potentiation by adding Ia to B.t. products, and establish the range of insects that are affected, diet incorporation bioassays are performed. In the experiments with high concentrations of Ia against Spodoptera exigua (7.4-23.7 g Ia/BIU), purified Ia (70% active ingredient, 30% acetate counter ion) is used to potentiate BIOBIT™ FC (FC represents flowable concentrate). […] S. littoralis and M. brassicae are tested using FLORBAC™ HPWP and Ia.
(§3) The various B.t. products are weighed and Ia is added to give 0.1 to 237 g Ia/BIU. The volume is adjusted with 0.1% Tween™. The samples are sonicated for 1 minute and then diluted to final volume. Neat samples (without Ia) and reference substances are prepared as well. Reference substances include B.t.k.
(§4) Standard artificial diet composed of water, agar, sugar, casein, wheat germ, methyl paraben, sorbic acid, linseed oil, cellulose, salts, and vitamins are prepared in a 20 L heated kettle. This provides enough diet to test 10 to 12 samples with seven different concentrations of each test substance. The B.t. solutions are serially diluted to give 16 ml aliquots. Each aliquot is added to 184 g of molten diet. The mixture is subsequently homogenized and then poured into a plastic tray bearing 40 individual cells. Three control trays are prepared for each batch of diet. Once the diet has cooled and solidified, one insect of a known age (2-3 instar) is added to each cell, and the trays are covered with a perforated sheet of clear mylar. The trays are placed on racks and incubated for four days at 28° C. and 65% relative humidity.
(§5) After four days, insect mortality is rated. […] Percent mortality is calculated and the data is analyzed via parallel probit analysis. LC50 s, LC90 s, the slope of the regression lines, coefficient of variation, and potencies are estimated. Samples are run a minimum of 3 times or until three potencies are within 20% of a calculated mean for each sample. To calculate the increase in activity associated with each concentration of Ia, the LC50 of the B.t./Ia sample is corrected to reflect the amount of B.t. in the sample. The Lc50 s of the paired neat samples are divided by the corrected LC50 values to give the fold reduction in LC50 associated with Ia.
The potentiation of various produces on Spodoptera exigua by Ia is determined using diet incorporation bioassays described supra. Ia/B.t. product mixture is incorporated into an agar-based wheat germ casein diet. The insects are placed on the diet for four days and held at 28° C. Mortality is recorded and analyzed using probit analysis. LC50, LC90 and potency are calculated from matched product lacking Ia. The results shown in Table V indicate that Ia potentiate various B.t.k. and B.t.a. products obtained from various sources. The B.t. strains contained in these products are described in Section 5.2., supra.

Spodoptera frugiperda = assay: Diet incorporation bioassay, third instar Spodoptera frugiperda; assay type: in vivo; conditions: BIOBIT HPWP
Experimental: as §1, §2, §3, §4, §5

Trichoplusia ni = assay: Diet incorporation bioassay, third instar Trichoplusia ni; assay type: in vivo; conditions: BIOBIT HPWP
Experimental: as §1, §2, §3, §4, §5

Pseudoplusia includens = assay: Diet incorporation bioassay, third instar Pseudoplusia includens; assay type: in vivo; conditions: BIOBIT HPWP
Experimental: as §1, §2, §3, §4, §5

Plutella xylostella = assay: Diet incorporation bioassay, third instar Plutella xylostella; assay type: in vivo; conditions: BIOBIT HPWP
Experimental: as §1, §2, §3, §4, §5

Helicoverpa zea = assay: Diet incorporation bioassay, second instar Helicoverpa zea; assay type: in vivo; conditions: BIOBIT HPWP, 3.2 g Ia per BIU
Experimental: as §1, §2
as §3, with “B.t.k. […]” for “B.t.k.”
(§6) After four days, insect mortality is rated. […] Percent mortality is calculated and the data is analyzed via parallel probit analysis. […]

Heliothis virescens = assay: Diet incorporation bioassay, second instar Heliothis virescens; assay type: in vivo; conditions: BIOBIT HPWP, 3.2 g Ia per BIU
Experimental: as §1, §2
as §3, with “B.t.k. […]” for “B.t.k.”
as §6

Lobesia bothrana = Lobesia bothrana assay (larvae drinking dilution, grape berries); assay type: in vivo; conditions: BIOBIT HPWP, 2.0 g Ia per BIU
Experimental: The following procedure is used to assay for Lobesia bothrana. Vine grapes attacked by Lobesia bothrana are collected in an unsprayed field and larva is removed. A dilution series of Ia (250 μg/ml, 500 μg/ml, and 1000 μg/ml) is made in water. One larva is put in the middle of the petri dish. If the larva is observed to drink, it is moved into a petri dish with freshly cut grape berries. The larvae are stored at 22° C. for 3-4 days.

Spodoptera littoralis = assay: Diet incorporation bioassay, third instar Spodoptera littoralis; assay type: in vivo; conditions: FLORBAC HPWP, 2.0 g Ia per BIU
Experimental: as §1, §2
as §3, with “B.t.k. […]” for “B.t.k.”
as §6

Mamestra brassicae = assay: Diet incorporation bioassay, third instar Mamestra brassicae; assay type: in vivo; conditions: FLORBAC HPWP, 2.0 g Ia per BIU
Experimental: as §1, §2
as §3, with “B.t.k. […]” for “B.t.k.”
as §6

SMILES: NC(=O)NCC(NC(=O)C(O)C(O)C(N)C(O)CC(O)C(N)CO)C(N)=O (centres unmarked) [Ia]
- potentiation of crystal delta-endotoxin (Spodoptera exigua [1]; Bacillus thuringiensis subsp. kurstaki and aizawai crystal delta-endotoxin proteins): potentiate the activity
- level of potentiation (Spodoptera exigua [1]; CryIC inclusions): 250 fold
- potentiation of pesticidal activity (Spodoptera exigua [1]; CryII and CryIC inclusions): also potentiated
- potentiation (Spodoptera exigua [1]; CryII inclusions): 125 fold
- Mortality (Spodoptera exigua [1]; Ia alone, no Bt protein, after 2 days): 0/5
- Stunt Score (Spodoptera exigua [1]; Ia alone, no Bt protein, 4.0 = untreated control, 0.0 = no growth): 4.0
- potentiation of pesticidal activity (Spodoptera exigua [1]; formulated B.t.k., isolated crystals, full-length or truncated CryIA proteins): all potentiated
- level of potentiation (Spodoptera exigua [1]; full-length CryIA(c)): approximately 320 fold
- potentiation of pesticidal activity (Spodoptera exigua [1]; individual truncated CryIA(a), (b), and (c) proteins): potentiate the activity
- level of potentiation (Spodoptera exigua [1]; truncated CryIA proteins, CryII and CryIC inclusions): 100-200 fold
- activity of Ia alone (Spodoptera exigua [1]; without Cry protein): inactive alone
- stability ([2]; autoclaving (>190C)): loses all activity
- stability ([2]; boiling for 5 minutes): stable
- stability ([2]; direct sunlight for at least 10 hours): stable
- stability ([2]; exposed to periodic acid or concentrated HCl): lose all activity
- stability ([2]; pH 2 for 3 days): stable
- stability ([2]; pH 12): unstable
- solubility in organic solvents ([3]; organic solvents): not soluble in organic solvents
- water solubility ([3]; water): water soluble
- Increase in activity, Fold reduction in LC50 (Spodoptera exigua [4]; BIOBIT FC, 7.4 g Ia per BIU, purified Ia): 13 Fold
- Increase in activity, Fold reduction in LC50 (Spodoptera exigua [4]; BIOBIT FC, 15 g Ia per BIU, purified Ia): 26 Fold
- Increase in activity, Fold reduction in LC50 (Spodoptera exigua [4]; BIOBIT FC, 30 g Ia per BIU, purified Ia): 34 Fold
- Increase in activity, Fold reduction in LC50 (Spodoptera exigua [4]; BIOBIT FC, 118 g Ia per BIU, purified Ia): 59 Fold
- Increase in activity, Fold reduction in LC50 (Spodoptera exigua [4]; BIOBIT FC, 237 g Ia per BIU, purified Ia): 79 Fold
- Increase in activity, Fold reduction in LC50 (Spodoptera exigua [4]; BIOBIT HPWP, 0.1 g Ia per BIU): 1.5 Fold
- Increase in activity, Fold reduction in LC50 (Spodoptera exigua [4]; BIOBIT HPWP, 0.2 g Ia per BIU): 1.7 Fold
- Increase in activity, Fold reduction in LC50 (Spodoptera exigua [4]; BIOBIT HPWP, 2.0 g Ia per BIU): 4.3 Fold
- Increase in activity, Fold reduction in LC50 (Spodoptera exigua [4]; BIOBIT HPWP, 4.0 g Ia per BIU): 7.5 Fold
- Increase in activity, Fold reduction in LC50 (Spodoptera frugiperda; 0.2 g Ia per BIU): 2.2 Fold
- Increase in activity, Fold reduction in LC50 (Spodoptera frugiperda; 0.8 g Ia per BIU): 3.9 Fold
- Increase in activity, Fold reduction in LC50 (Spodoptera frugiperda; 2.0 g Ia per BIU): 7.2 Fold
- Increase in activity, Fold reduction in LC50 (Spodoptera frugiperda; 4.0 g Ia per BIU): 11.6 Fold
- Increase in activity, Fold reduction in LC50 (Trichoplusia ni; 0.1 g Ia per BIU): 1.1 Fold
- Increase in activity, Fold reduction in LC50 (Trichoplusia ni; 0.2 g Ia per BIU): 1.2 Fold
- Increase in activity, Fold reduction in LC50 (Trichoplusia ni; 2.0 g Ia per BIU): 2.0 Fold
- Increase in activity, Fold reduction in LC50 (Trichoplusia ni; 4.0 g Ia per BIU): 3.1 Fold
- Increase in activity, Fold reduction in LC50 (Pseudoplusia includens; 0.1 g Ia per BIU): 0 Fold
- Increase in activity, Fold reduction in LC50 (Pseudoplusia includens; 0.2 g Ia per BIU): 1.2 Fold
- Increase in activity, Fold reduction in LC50 (Pseudoplusia includens; 0.8 g Ia per BIU): 2.1 Fold
- Increase in activity, Fold reduction in LC50 (Pseudoplusia includens; 2.0 g Ia per BIU): 2.4 Fold
- Increase in activity, Fold reduction in LC50 (Pseudoplusia includens; 4.0 g Ia per BIU): 3.4 Fold
- Increase in activity, Fold reduction in LC50 (Plutella xylostella; 0.2 g Ia per BIU): 1.6 Fold
- Increase in activity, Fold reduction in LC50 (Plutella xylostella; 0.8 g Ia per BIU): 1.3 Fold
- Increase in activity, Fold reduction in LC50 (Plutella xylostella; 2.0 g Ia per BIU): 1.4 Fold
- Increase in activity, Fold reduction in LC50 (Plutella xylostella; 4.0 g Ia per BIU): 1.9 Fold
- Increase in activity, Fold reduction in LC50 (Helicoverpa zea): 12.6 Fold
- Increase in activity, Fold reduction in LC50 (Heliothis virescens): 4.2 Fold
- Increase in activity, Fold reduction in LC50 (Lobesia bothrana): 3.0 Fold
- Increase in activity, Fold reduction in LC50 (Spodoptera littoralis): 8.6 Fold
- Increase in activity, Fold reduction in LC50 (Mamestra brassicae): 4.9 Fold

Source: US6268181A, “Methods for producing a potentiator of Bacillus pesticidal activity” (Valent BioSciences, Corporation, priority 1998, dated 2001)
